# Source: US9212178B2, “Substituted pyrimidine compounds and their use as SYK inhibitors” (Genosco, priority 2013, dated 2015)
# Experiments:
# THP-1 cells = assay: SYK-dependent TNF-α release assay (IgG stimulation), ELISA; assay type: cell-based; conditions: THP-1 cells on human IgG-coated plate, 18 hours; read-out: TNF-α release inhibition, IgG stimulation IC50
# Experimental: In order to address cellular potency of Compounds of Formula (I), TNF-a production was measured on treatment of a series of concentration of SYK inhibitor in THP-1 cells.
# For SYK-dependent TNF-α release assay (i.e., via IgG stimulation), THP-1 cells derived from human monocytic cells were obtained from the American Type Culture Collection (ATCC, Manassas, Va.). This cell line was maintained with a Roswell Park Memorial Institute (RPMI) medium (GIBCO) containing 10% fetal bovine serum (FBS; GIBCO) and 0.05 mM solution of 2-mercaptoethanol. The THP-1 cells were seeded at 1×10^5 cells/100 μL/well into human IgG (10 ng/well, INVITROGEN)-coated 96 well culture plate, and serially diluted compound was then added. After an 18 hours of incubation period at 37° C., supernatants were collected for the determination of the TNF-α level by enzyme-linked immunosorbent assay (ELISA), and the remaining cells were subjected to an MTT (yellow tetrazolium salt) assay to determine the cytotoxic effects of the compound. The IC50 value of the test compound was calculated at Gradpad Prism 5 unless otherwise specified.
# full-length human SYK = full-length human SYK (Homo sapiens (Human), UniProt P43405); assay: Inhibition of enzymatic SYK kinase activity (LANCE Ulight TK peptide); assay type: biochemical; conditions: ATP at Km (15 uM), 30 min pre-incubation
# Experimental: Compounds of the present invention were assayed to measure their capacity to inhibit a spleen tyrosine kinase (SYK).
# Compounds of the invention were initially diluted to 10 mM in 100% DMSO (CALBIOCHEM™) for storage and made into kinase buffer solution to create a compound concentration ranging from 1 uM and 10 uM. Serial dilutions of compounds of the invention were dispensed into a 96-well plate (GREINER BIOSCIENCES™) at 6 μL each. Purified full-length human SYK (CARNA BIOSCIENCES™) were diluted in kinase buffer and added to the compound solutions and pre-incubated for 30 minutes at room temperature. […] The reaction mixture was incubated for 1 hour. Following the incubation, the stop solution made with EDTA, water, and Lance detection buffer ([…]™) was added (12 μL each) to stop phosphorylation.
Compound,IC50 (THP-1 cells) [nM],IC50 (full-length human SYK) [nM]
"Cc1nn(-c2ccnc(Nc3ccc4c(c3)c(C(=O)C(C)C)cn4C)n2)cc1CN1C[C@H](O)CO1 [Compound 2, (S)-1-(5-(4-(4-((4-hydroxyisoxazolidin-2-yl)methyl)-3-methyl-1H-pyrazol-1-yl)pyrimidin-2-ylamino)-1-methyl-1H-indol-3-yl)-2-methylpropan-1-one]",67,8.63
"Cc1nn(-c2ccnc(Nc3ccc4c(c3)c(C(=O)C(F)(F)F)cn4C)n2)cc1CN1C[C@H](O)CO1 [Compound 3, (S)-2,2,2-trifluoro-1-(5-(4-(4-((4-hydroxyisoxazolidin-2-yl)methyl)-3-methyl-1H-pyrazol-1-yl)pyrimidin-2-ylamino)-1-methyl-1H-indol-3-yl)ethanone]",48,2.82
"Cc1nn(-c2ccnc(Nc3ccc4c(c3)c(C(=O)C(F)F)cn4C)n2)cc1CN1C[C@H](O)CO1 [Compound 4, (S)-2,2-difluoro-1-(5-(4-(4-((4-hydroxyisoxazolidin-2-yl)methyl)-3-methyl-1H-pyrazol-1-yl)pyrimidin-2-ylamino)-1-methyl-1H-indol-3-yl)ethanone]",45,9.42
"CCOC(=O)n1cc(C(C)=O)c2cc(Nc3nccc(-n4cc(CN5C[C@H](O)CO5)c(C)n4)n3)ccc21 [Compound 5, (S)-ethyl 3-acetyl-5-(4-(4-((4-hydroxyisoxazolidin-2-yl)methyl)-3-methyl-1H-pyrazol-1-yl)pyrimidin-2-ylamino)-1H-indole-1-carboxylate]",293,–
"Cc1nn(-c2ccnc(Nc3ccc4[nH]cc(C(=O)C(F)(F)F)c4c3)n2)cc1CN1C[C@H](O)CO1 [Compound 7, (S)-2,2,2-trifluoro-1-(5-(4-(4-((4-hydroxyisoxazolidin-2-yl)methyl)-3-methyl-1H-pyrazol-1-yl)pyrimidin-2-ylamino)-1H-indol-3-yl)ethanone]",60,8.28
"Cc1nn(-c2ccnc(Nc3ccc4c(c3)c(C(=O)C3CC3)cn4C(C)C)n2)cc1CN1C[C@H](O)CO1 [Compound 8, (S)-cyclopropyl(5-(4-(4-((4-hydroxyisoxazolidin-2-yl)methyl)-3-methyl-1H-pyrazol-1-yl)pyrimidin-2-ylamino)-1-isopropyl-1H-indol-3-yl)methanone]",97,7.37
"CC(=O)c1cn(C)c2ccc(Nc3nccc(-n4cc(CN5C[C@H](O)CO5)c(C)n4)n3)cc12 [Compound 9, (S)-1-(5-(4-(4-((4-hydroxyisoxazolidin-2-yl)methyl)-3-methyl-1H-pyrazol-1-yl)pyrimidin-2-ylamino)-1-methyl-1H-indol-3-yl)ethanone]",229,13.3
"Cc1nn(-c2ccnc(Nc3ccc4c(c3)c(C(=O)C(F)F)cn4C)n2)cc1CN1C[C@@H](O)CO1 [Compound 10, (R)-2,2-difluoro-1-(5-(4-(4-((4-hydroxyisoxazolidin-2-yl)methyl)-3-methyl-1H-pyrazol-1-yl)pyrimidin-2-ylamino)-1-methyl-1H-indol-3-yl)ethanone]",–,24.4
"CCn1cc(C(=O)C2CC2)c2cc(Nc3nccc(-n4cc(CN5C[C@@H](O)CO5)c(C)n4)n3)ccc21 [Compound 11, (R)-cyclopropyl(1-ethyl-5-(4-(4-((4-hydroxyisoxazolidin-2-yl)methyl)-3-methyl-1H-pyrazol-1-yl)pyrimidin-2-ylamino)-1H-indol-3-yl)methanone]",89,6.28
"Cc1nn(-c2ccnc(Nc3ccc4[nH]cc(C(=O)C5CC5)c4c3)n2)cc1CN1C[C@H](O)CO1 [Compound 12, (S)-cyclopropyl(5-(4-(4-((4-hydroxyisoxazolidin-2-yl)methyl)-3-methyl-1H-pyrazol-1-yl)pyrimidin-2-ylamino)-1H-indol-3-yl)methanone]",120,13.5
"CCn1cc(C(=O)C2CC2)c2cc(Nc3nccc(-n4cc(CN5CC(C)(O)CO5)c(C)n4)n3)ccc21 (stereo not drawn) [Compound 13, cyclopropyl(1-ethyl-5-(4-(4-((4-hydroxy-4-methylisoxazolidin-2-yl)methyl)-3-methyl-1H-pyrazol-1-yl)pyrimidin-2-ylamino)-1H-indol-3-yl)methanone]",273,17.3
"Cc1nn(-c2ccnc(Nc3ccc4c(c3)c(C(=O)C3CC3)cn4C)n2)cc1CN1CC(C)(O)CO1 (stereo not drawn) [Compound 14, cyclopropyl(5-(4-(4-((4-hydroxy-4-methylisoxazolidin-2-yl)methyl)-3-methyl-1H-pyrazol-1-yl)pyrimidin-2-ylamino)-1-methyl-1H-indol-3-yl)methanone]",789,41.7
"Cc1nn(-c2ccnc(Nc3ccc4c(c3)c(C(=O)C3CC3)cn4CC(F)(F)F)n2)cc1CN1C[C@H](O)CO1 [Compound 15, (S)-cyclopropyl(5-(4-(4-((4-hydroxyisoxazolidin-2-yl)methyl)-3-methyl-1H-pyrazol-1-yl)pyrimidin-2-ylamino)-1-(2,2,2-trifluoroethyl)-1H-indol-3-yl)methanone]",66,2.98
"Cc1nn(-c2ccnc(Nc3ccc4c(c3)c(C(=O)C3CC3)cn4CC(F)(F)F)n2)cc1CN1CC(C)(O)CO1 (stereo not drawn) [Compound 16, cyclopropyl(5-(4-(4-((4-hydroxy-4-methylisoxazolidin-2-yl)methyl)-3-methyl-1H-pyrazol-1-yl)pyrimidin-2-ylamino)-1-(2,2,2-trifluoroethyl)-1H-indol-3-yl)methanone]",226,14.2
"Cc1nn(-c2nc(Nc3ccc4c(c3)c(C(=O)C(F)(F)F)cn4C)ncc2Cl)cc1CN1C[C@H](O)CO1 [Compound 17, (S)-1-(5-(5-chloro-4-(4-((4-hydroxyisoxazolidin-2-yl)methyl)-3-methyl-1H-pyrazol-1-yl)pyrimidin-2-ylamino)-1-methyl-1H-indol-3-yl)-2,2,2-trifluoroethanone]",–,132
"Cc1cnc(Nc2ccc3c(c2)c(C(=O)C(F)(F)F)cn3C)nc1-n1cc(CN2C[C@H](O)CO2)c(C)n1 [Compound 18, (S)-2,2,2-trifluoro-1-(5-(4-(4-((4-hydroxyisoxazolidin-2-yl)methyl)-3-methyl-1H-pyrazol-1-yl)-5-methylpyrimidin-2-ylamino)-1-methyl-1H-indol-3-yl)ethanone]",–,159
"Cc1cnc(Nc2ccc3c(c2)c(C(=O)C2CC2)cn3C)nc1-n1cc(CN2C[C@H](O)CO2)c(C)n1 [Compound 19, (S)-cyclopropyl(5-(4-(4-((4-hydroxyisoxazolidin-2-yl)methyl)-3-methyl-1H-pyrazol-1-yl)-5-methylpyrimidin-2-ylamino)-1-methyl-1H-indol-3-yl)methanone]",821,271
"CCn1cc(C(=O)C2CC2)c2cc(Nc3ncc(F)c(-n4cc(CN5C[C@H](O)CO5)c(C)n4)n3)ccc21 [Compound 20, (S)-cyclopropyl(1-ethyl-5-(5-fluoro-4-(4-((4-hydroxyisoxazolidin-2-yl)methyl)-3-methyl-1H-pyrazol-1-yl)pyrimidin-2-ylamino)-1H-indol-3-yl)methanone]",–,66.2
"CCn1cc(C(=O)C2CC2)c2cc(Nc3ncc(C)c(-n4cc(CN5C[C@H](O)CO5)c(C)n4)n3)ccc21 [Compound 22, (S)-cyclopropyl(1-ethyl-5-(4-(4-((4-hydroxyisoxazolidin-2-yl)methyl)-3-methyl-1H-pyrazol-1-yl)-5-methylpyrimidin-2-ylamino)-1H-indol-3-yl)methanone]",–,79.3
"Cc1nn(-c2ccnc(Nc3ccc4c(c3)c(C(=O)C3CC3)cn4CCF)n2)cc1CN1C[C@H](O)CO1 [Compound 23, (S)-cyclopropyl(1-(2-fluoroethyl)-5-(4-(4-((4-hydroxyisoxazolidin-2-yl)methyl)-3-methyl-1H-pyrazol-1-yl)pyrimidin-2-ylamino)-1H-indol-3-yl)methanone]",111,3.71
"CCn1cc(C(=O)C2CC2)c2cc(Nc3nccc(-n4cc(CN5C[C@H](O)CO5)c(C5CC5)n4)n3)ccc21 [Compound 25, (S)-cyclopropyl(5-(4-(3-cyclopropyl-4-((4-hydroxyisoxazolidin-2-yl)methyl)-1H-pyrazol-1-yl)pyrimidin-2-ylamino)-1-ethyl-1H-indol-3-yl)methanone]",465,5.85
Cc1nn(-c2ccnc(Nc3ccc4c(c3)c(C(=O)C3CC3)cn4C)n2)cc1CN1CC(C)(O)CCO1 (stereo not drawn) [Compound 28],–,106
"Cc1nn(-c2ccnc(Nc3ccc4c(c3)c(Cl)c(C)n4C)n2)cc1CN1C[C@H](O)CO1 [Compound 31, (S)-2-((1-(2-(3-chloro-1,2-dimethyl-1H-indol-5-ylamino)pyrimidin-4-yl)-3-methyl-1H-pyrazol-4-yl)methyl)isoxazolidin-4-ol]",197,–
(S)-cyclopropyl(1-ethyl-5-(5-fluoro-4-(3-((4-hydroxyisoxazolidin-2-yl)methyl)-4-methyl-1H-pyrrol-1-yl)pyrimidin-2-ylamino)-1H-indol-3-yl)methanone [Compound 21],–,230
